This note sets out measurements from US20230024652A1, “PHARMACEUTICAL COMPOSITION COMPRISING SMALL OCTOPUS-DERIVED PEPTIDE FOR TREATMENT OF INFLAMMATORY DISEASE” (NATIONAL MARINE BIODIVERSITY INSTITUTE OF KOREA, priority 2020, published 2023).

The test system of this data set is RAW 264.7 macrophages. The experiment in a line: MTT cell viability / cytotoxicity and cyto-protection. Format: cell-based. To be noted: 62.5 to 500 μg/mL. The method, then: As macrophages, RAW 264.7 cells (American Type Culture Collection; ATCCUSA) were cultured in DMEM (Gibco/BRL, Canada) supplemented with 10% heat inactivated FBS and 1% antibiotics in 37° C. at 100% humidity under 5% CO2. […] After 24 hours, culture medium containing 3-(4,5-dimethylthiazol-2-yl)-2,5-diphenyltetrazolium bromide (MTT) (0.1 mg/mL) was added to each well. After 1 hour, culture medium was removed, and formazan crystals were dissolved in dimethyl sulfoxide (DMSO) and measured at 550 nm using a microplate reader. The concentration of NO in the culture medium was determined by Griess reagent (Abekura et al. Int Immunopharmacol 68:156, 2019). The cell viability of the control group untreated with Octominin was designated as 100%, which indicates no cytotoxicity

Where a SMILES comes first, the peptide text is derived from it.

For `CC[C@H](C)[C@H](NC(=O)[C@H](C)NC(=O)[C@H](CCCCN)NC(=O)CNC(=O)[C@H](C)NC(=O)[C@H](Cc1c[nH]cn1)NC(=O)[C@@H](NC(=O)[C@H](C)NC(=O)CNC(=O)[C@H](CCCNC(=N)N)NC(=O)[C@@H](NC(=O)[C@H](CC(C)C)NC(=O)[C@H](Cc1c[nH]c2ccccc12)NC(=O)CN)[C@@H](C)CC)[C@@H](C)CC)C(=O)N[C@@H](Cc1c[nH]cn1)C(=O)NCC(=O)N[C@@H](CC(C)C)C(=O)N[C@H](C(=O)N[C@@H](Cc1c[nH]cn1)C(=O)N[C@@H](CCCNC(=N)N)C(=O)N[C@@H](CCCNC(=N)N)C(=O)N[C@@H](CCCNC(=N)N)C(=O)N[C@@H](Cc1c[nH]cn1)C(=O)O)[C@@H](C)CC` [Octominin] (H-GWLIRGAIHAGKAIHGLIHRRRH-OH), the toxicity to macrophages entry was “non-toxic”. In addition, for the setting “RAW 264.7 macrophages without LPS, compared with control group”, the “cell viability reduction (cytotoxicity, MTT)” value was “did not show any significant cell viability reduction”.
